The record followed here is patent US8664217B2, “Benzodiazepine compound and pharmaceutical composition” (Otsuka Pharmaceutical Co., Ltd., priority 2008, dated 2014).

The target in this assay is T1, human Kv1.5 channels (Homo sapiens, UniProt P22460).
T1 construct: Full-length human Kv1.5 cDNA was cloned from a human heart cDNA library; expressed in transfected cells; host or cells: CHO-K1
Put plainly: Measurement of human Kv1.5 channel current by whole-cell patch clamp method (human Kv1.5-expressing CHO-K1 cell line). The format is cell-based. The following applies: human Kv1.5-expressing CHO-K1 cells, step end current at +40 mV, test compound 0.1, 1, 10 μM. As for the experimental part:
Pharmacological Test 1 (1) Production of Human Kv1.5-Expressing CHO-K1 Cell Lines
CHO-K1 cell lines stably expressing human Kv1.5 channels were prepared in the following manner.
Full-length human Kv1.5 cDNA was cloned from a human heart cDNA library (produced by Stratagene). The obtained human Kv1.5 sequence corresponds to the sequence described in FASEB J. 5, 331-337 (1991).
The obtained human Kv1.5 cDNA was inserted into a plasmid encoding a CMV promoter and a G418 resistance marker to produce a Kv1.5 expression vector. The human Kv1.5 expression vector was transfected into CHO-K1 cells by the lipofectamine method. After culturing the cells in an F-12 medium (produced by Invitrogen Corp.) containing 10% FBS (produced by Invitrogen Corp.) for 3 or 4 days, the medium was replaced with a FBS-containing F-12 medium that included 1,000 μg/ml of G418 (produced by Invitrogen Corp.), and single colonies were isolated. The amount of Kv1.5 channel expression in the single colonies was quantified at the mRNA level by RT-PCR and then quantified at the protein level by western blotting. Finally, the expressed current was analyzed by patch clamp method. Cell lines expressing a current of 200 pA or more per cell were selected as channel-expressing cell lines for activity measurement by patch clamp method.
(3) Measurement of Ion Channel Current by Patch Clamp Method (Human Kv1.5-Expressing CHO-K1 Cell Line)
An experiment was carried out using a patch clamp setup at room temperature (20 to 26° C.). A perfusion chamber having a diameter of 20 mm (flow rate: about 5 ml/min) was mounted on the stage of a phase-contrast inverted microscope (produced by Nikon Corporation) placed on a vibration isolated table. A poly-L-lysine (produced by Sigma)-coated coverslip (diameter: 15 mm, produced by Matsunami Glass Ind., Ltd.) on which human Kv1.5-expressing cells were cultured was placed in the perfusion chamber.
Depolarizing stimulation pulses were applied and ionic current was recorded by using a patch clamp amplifier (EPC-7 or EPC-7 PLUS, produced by HEKA) and a personal computer (manufactured by IBM Corp.) in which software for data acquisition and analysis of ion channel current (PULSE 8.77, produced by HEKA) was installed. The current was measured in the whole-cell configuration of the patch-clamp technique. The tip (resistance: 2 to 4 MΩ) of a borosilicate glass pipette (produced by Sutter Instrument Co.) was gently placed on the cell membrane by using a three-dimensional mechanical micromanipulator (produced by Shoshin EM Corporation). […] Subsequently, stronger suction was applied to break the cell membrane. The capacitative current derived from the cell membrane was corrected using a patch clamp amplifier. Subsequently, the series resistance (Rs) between the pipette and the interior of the cell was measured and corrected.
The composition of the extracellular solution used is shown below. Unless otherwise specified, these components were obtained from Wako Pure Chemical Industries, Ltd.
Each test compound was prepared as a 1000-fold concentrated stock solution that was dissolved in DMSO and then diluted in the extracellular solution.
The composition of the electrode internal solution used is shown below. Unless otherwise specified, these components were obtained from Wako Pure Chemical Industries, Ltd.
(5) Measurement of Human Kv1.5 Current
While the membrane potential was bolded at −80 mV, depolarizing pulses (−80 mV for 0.05 seconds→+40 mV for 0.2 seconds →−40 mV for 0.2 seconds→−80 mV for 0.05 seconds) were applied at a stimulation frequency of 1 Hz to measure Kv1.5 channel current. More specifically, first, while perfusing an extracellular solution containing 0.1% DMSO and holding the membrane potential at −80 mV, depolarizing pulses were applied. The current obtained during the pulse application was recorded as a current in the absence of the test compounds. […]
(The patch-clamp technique gives a direct electrical read-out from membranes.)

SMILES strings stand for the structures. Counter-ions that a name gives are not always drawn.

T1 sequence (P22460 whole entry): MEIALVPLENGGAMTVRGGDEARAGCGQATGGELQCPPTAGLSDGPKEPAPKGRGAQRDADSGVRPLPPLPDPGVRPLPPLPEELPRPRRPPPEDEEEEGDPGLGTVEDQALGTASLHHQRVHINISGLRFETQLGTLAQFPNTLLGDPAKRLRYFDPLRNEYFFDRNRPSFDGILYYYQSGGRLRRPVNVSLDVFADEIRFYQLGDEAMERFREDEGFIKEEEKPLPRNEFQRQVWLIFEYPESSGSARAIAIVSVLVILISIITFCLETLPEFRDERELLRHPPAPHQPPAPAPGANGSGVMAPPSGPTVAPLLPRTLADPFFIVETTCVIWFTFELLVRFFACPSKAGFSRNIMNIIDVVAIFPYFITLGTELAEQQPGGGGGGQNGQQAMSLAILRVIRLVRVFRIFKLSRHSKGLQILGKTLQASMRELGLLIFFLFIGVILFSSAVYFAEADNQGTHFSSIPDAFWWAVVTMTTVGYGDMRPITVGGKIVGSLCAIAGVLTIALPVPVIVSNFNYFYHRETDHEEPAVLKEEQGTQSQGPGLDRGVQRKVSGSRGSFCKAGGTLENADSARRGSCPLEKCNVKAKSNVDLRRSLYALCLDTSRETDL

On to `CCN1C(=O)C(C)(C)C(=O)N(C)c2cc(OCCCN(CCn3ccc4occc4c3=O)Cc3cnccc3C)ccc21` [Example 590, 1-ethyl-3,3,5-trimethyl-7-(3-{(4-methylpyridin-3-ylmethyl)-[2-(4-oxo-4H-furo[3,2-c]pyridin-5-yl)ethyl]-amino}propoxy)-1,5-dihydrobenzo[b][1,4]diazepine-2,4-dione], for which half-maximal inhibition (IC50) required 460 nM.

With `CCN1C(=O)C(C)(C)C(=O)N(C)c2cc(OCCCN(CCn3c(=O)ccc4ccccc43)Cc3ccncc3)ccc21` [Example 63, 1-ethyl-3,3,5-trimethyl-7-(3-{[2-(2-oxo-2H-quinolin-1-yl)ethyl]pyridin-4-ylmethylamino}propoxy)-1,5-dihydrobenzo[b][1,4]diazepine-2,4-dione], the IC50 (usually the point on the concentration scale where inhibition reaches its midpoint) came to 240 nM. This IC50 lies about 1.9-fold lower than the previous one.

Consider `CCN1C(=O)C(C)(C)C(=O)N(C)c2cc(OCCCN(CCc3cccnc3)C(=O)c3ccccc3)ccc21` [Example 633, N-[3-(1-ethyl-3,3,5-trimethyl-2,4-dioxo-2,3,4,5-tetrahydro-1H-benzo[b][1,4]diazepin-7-yloxy)propyl]-N-(2-pyridin-3-ylethyl)benzamide hydrochloride], for which the IC50 is 1100 nM.

`CCN1C(=O)C(C)(C)C(=O)N(C)c2cc(OCCCN(CCc3cccnc3)S(=O)(=O)c3ccccc3)ccc21` [Example 628, N-[3-(1-ethyl-3,3,5-trimethyl-2,4-dioxo-2,3,4,5-tetrahydro-1H-benzo[b][1,4]diazepin-7-yloxy)propyl]-N-(2-pyridin-3-ylethyl)benzenesulfonamide hydrochloride]: the 50% inhibitory concentration (IC50) came out at 980 nM.

`CN1C(=O)C(C)(C)C(=O)N(C)c2cc(OCCCN(CCc3cccnc3)Cc3ccncc3)ccc21` [Example 19, 1,3,3,5-tetramethyl-7-{3-[(2-pyridin-3-ylethyl)pyridin-4-ylmethylamino]propoxy}-1,5-dihydrobenzo[b][1,4]diazepine-2,4-dione trihydrochloride] showed an IC50 of 540 nM.

For the compound `CCN1C(=O)C(C)(C)C(=O)N(C)c2cc(OCCCN(CCn3ccc4sccc4c3=O)Cc3cccnc3C)ccc21` [Example 595, 1-ethyl-3,3,5-trimethyl-7-(3-{(2-methylpyridin-3-ylmethyl)-[2-(4-oxo-4H-thieno[3,2-c]pyridin-5-yl)ethyl]-amino}propoxy)-1,5-dihydrobenzo[b][1,4]diazepine-2,4-dione], the IC50 came to 500 nM.

`CCN1C(=O)C(C)(C)C(=O)N(C)c2cc(OCCCN(CCn3ccc4oc(C)cc4c3=O)Cc3ccncc3)ccc21` [Example 464, 1-ethyl-3,3,5-trimethyl-7-(3-{[2-(2-methyl-4-oxo-4H-furo[3,2-c]pyridin-5-yl)ethyl]pyridin-4-ylmethylamino}propoxy)-1,5-dihydrobenzo[b][1,4]diazepine-2,4-dione dihydrochloride]: the IC50 turned out to be 440 nM. This IC50 and that of the compound before are within 1.5-fold of each other.

`CCCN1C(=O)C(C)(C)C(=O)N(C)c2cc(OCCCN(CCc3cccnc3)Cc3ccncc3)ccc21` [Example 10, 3,3,5-trimethyl-1-propyl-7-{3-[(2-pyridin-3-ylethyl)pyridin-4-ylmethylamino]propoxy}-1,5-dihydrobenzo[b][1,4]diazepine-2,4-dione trihydrochloride] yielded an IC50 of 580 nM.

Consider `CCN1C(=O)C(C)(C)C(=O)N(C)c2cc(OCCCN(CCn3ccc4sccc4c3=O)Cc3cccnc3)ccc21` [Example 568, 1-ethyl-3,3,5-trimethyl-7-(3-{[2-(4-oxo-4H-thieno[3,2-c]pyridin-5-yl)ethyl]pyridin-3-ylmethylamino}-propoxy)-1,5-dihydrobenzo[b][1,4]diazepine-2,4-dione], for which the half-inhibitory concentration (IC50) came to 420 nM.

`CCN1C(=O)C(C)(C)C(=O)N(C)c2cc(OCCCN(CCn3ccc4ccccc4c3=O)Cc3ccc(C#N)cc3)ccc21` [Example 85] had an IC50 of 150 nM.

In turn, `CCN1C(=O)C(C)(C)C(=O)N(C)c2cc(OCCCN(CCc3cccnc3)Cc3cccc(C#N)c3)ccc21` [Example 229] displayed an IC50 of 160 nM.

`CCN1C(=O)C(C)(C)C(=O)N(C)c2cc(OCCCN(CCn3ccc4ccccc4c3=O)Cc3ccsc3)ccc21` [Example 125] showed an IC50 of 190 nM.

For `CCN1C(=O)C(C)(C)C(=O)N(C)c2cc(OCCCN(CCn3ccc4ccsc4c3=O)Cc3ccncc3)ccc21` [Example 68, 1-ethyl-3,3,5-trimethyl-7-(3-{[2-(7-oxo-7H-thieno[2,3-c]pyridin-6-yl)ethyl]pyridin-4-ylmethylamino}propoxy)-1,5-dihydrobenzo[b][1,4]diazepine-2,4-dione], the IC50 was 380 nM.

For `CCN1C(=O)C(C)(C)C(=O)N(C)c2cc(OCCCN(CCn3ccc4ccccc4c3=O)Cc3ccncc3)ccc21` [Example 23, 1-ethyl-3,3,5-trimethyl-7-(3-{[2-(1-oxo-1H-isoquinolin-2-yl)ethyl]pyridin-4-ylmethylamino}propoxy)-1,5-dihydrobenzo[b][1,4]diazepine-2,4-dione dihydrochloride], half-maximal inhibition (IC50) was put at 180 nM.

Turning to `CCN1C(=O)C(C)(C)C(=O)N(C)c2cc(OCCCN(CCn3ccc4ccccc4c3=O)S(=O)(=O)c3ccccc3)ccc21` [Example 634, N-[3-(1-ethyl-3,3,5-trimethyl-2,4-dioxo-2,3,4,5-tetrahydro-1H-benzo[b][1,4]diazepin-7-yloxy)propyl]-N-[2-(1-oxo-1H-isoquinolin-2-yl)ethyl]benzenesulfonamide], half-maximal inhibition (IC50) required 360 nM.

In turn, `CCN1C(=O)C(C)(C)C(=O)N(C)c2cc(OCCCN(CCn3ccc4ccoc4c3=O)Cc3ccc(C#N)cc3)ccc21` [Example 380] registered a concentration for half-maximal inhibition (IC50) of 160 nM.

Turning to `CCN1C(=O)C(C)(C)C(=O)N(C)c2cc(OCCCN(CCc3cccnc3)Cc3ccncc3C)ccc21` [Example 54, 1-ethyl-3,3,5-trimethyl-7-{3-[(3-methylpyridin-4-ylmethyl)-(2-pyridin-3-ylethyl)amino]propoxy}-1,5-dihydrobenzo[b][1,4]diazepine-2,4-dione trihydrochloride], the IC50 is 280 nM.

`CCN1C(=O)C(C)(C)C(=O)N(C)c2cc(OCCCN(CCn3ccc4oc(C)cc4c3=O)Cc3cnccc3C)ccc21` [Example 573, 1-ethyl-3,3,5-trimethyl-7-{3-[[2-(2-methyl-4-oxo-4H-furo[3,2-c]pyridin-5-yl)ethyl]-(4-methylpyridin-3-ylmethyl)amino]propoxy}-1,5-dihydrobenzo[b][1,4]diazepine-2,4-dione] yielded a half-inhibitory concentration (IC50) of 330 nM.

The compound `CCN1C(=O)C(C)(C)C(=O)N(C)c2cc(OCCCN(CCn3ccc4ccoc4c3=O)Cc3cccs3)ccc21` [Example 417] had an IC50 of 180 nM.

On to `CCN1C(=O)C(C)(C)C(=O)N(C)c2cc(OCCCN(CCn3ccc4occc4c3=O)Cc3ccc(C)nc3C)ccc21` [Example 629, 7-(3-{(2,6-dimethylpyridin-3-ylmethyl)-[2-(4-oxo-4H-furo[3,2-c]pyridin-5-yl)ethyl]amino}propoxy)-1-ethyl-3,3,5-trimethyl-1,5-dihydrobenzo[b][1,4]diazepine-2,4-dione dihydrochloride], for which the 50% inhibitory concentration (IC50) stood at 760 nM.

Compound `CCN1C(=O)C(C)(C)C(=O)N(C)c2cc(OCCCN(CCn3ccc4ccoc4c3=O)Cc3ccc(C(F)(F)F)cc3)ccc21` [Example 395] yielded an IC50 of 190 nM.

`CCN1C(=O)C(C)(C)C(=O)N(C)c2cc(OCCCN(CCn3ccc4ccccc4c3=O)Cc3ccco3)ccc21` [Example 132] had an IC50 of 270 nM. This IC50 and that of the compound before are within 1.5-fold of each other.

As to `CCN1C(=O)C(C)(C)C(=O)N(C)c2cc(OCCCN(CCc3cccnc3)Cc3ccccc3)ccc21` [Example 200], the IC50 was determined as 290 nM. The IC50 values of the last two compounds are within 1.5-fold of each other.
